The values below come from patent US5891882A, “Benzopyranopyrrole and benzopyranopyridine α-1 adenergic compounds” (priority 1997, dated 1999).

pKi: −log10 of the molar value. Counter-ions that a name gives are not always drawn. Like-named read-outs stand apart in the source and are kept apart here.

The target of experiment [1] is T1, α-1B adrenoreceptor (rat spleen) (Rattus norvegicus, UniProt P15823).
T1 construct: from tissue; host or cells: rat spleen
T1 sequence (P15823 1-515): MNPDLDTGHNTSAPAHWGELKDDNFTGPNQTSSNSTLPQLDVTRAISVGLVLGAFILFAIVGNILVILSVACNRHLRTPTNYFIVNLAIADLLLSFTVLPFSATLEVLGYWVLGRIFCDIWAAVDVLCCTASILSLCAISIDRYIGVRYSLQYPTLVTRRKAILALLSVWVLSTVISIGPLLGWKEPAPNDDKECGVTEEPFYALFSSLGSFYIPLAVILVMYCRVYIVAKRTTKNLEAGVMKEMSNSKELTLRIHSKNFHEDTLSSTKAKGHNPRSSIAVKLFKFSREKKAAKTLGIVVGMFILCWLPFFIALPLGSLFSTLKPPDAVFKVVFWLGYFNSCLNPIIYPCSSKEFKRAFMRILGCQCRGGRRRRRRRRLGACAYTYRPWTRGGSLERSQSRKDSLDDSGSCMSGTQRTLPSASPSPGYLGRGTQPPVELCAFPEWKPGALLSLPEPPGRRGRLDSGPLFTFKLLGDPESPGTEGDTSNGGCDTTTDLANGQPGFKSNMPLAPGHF
Briefly: Functional antagonism: inhibition of phenylephrine-induced contraction of rat spleen. In kind it is cell-based. From the text: Functional assays indicative of pharmacologically defined α-1 adrenoreceptors were used to further characterize compounds. Inhibition of phenylephrine (PE)-induced contraction of canine prostate smooth muscle can be correlated with α-1A adrenoreceptor activation. […] For each of these models, agonist dose response curves were repeated against increasing concentrations of test agent to derive a Schild plot [log ([…]) against log (molarity of test agent)] to determine the pA2.

In experiment [2] the target is T2, α-1d adrenoreceptor (rat) (Rattus norvegicus, UniProt P23944).
T2 construct: expressed in transfected cells; cDNA from TULCO; membranes
T2 sequence (P23944 1-561): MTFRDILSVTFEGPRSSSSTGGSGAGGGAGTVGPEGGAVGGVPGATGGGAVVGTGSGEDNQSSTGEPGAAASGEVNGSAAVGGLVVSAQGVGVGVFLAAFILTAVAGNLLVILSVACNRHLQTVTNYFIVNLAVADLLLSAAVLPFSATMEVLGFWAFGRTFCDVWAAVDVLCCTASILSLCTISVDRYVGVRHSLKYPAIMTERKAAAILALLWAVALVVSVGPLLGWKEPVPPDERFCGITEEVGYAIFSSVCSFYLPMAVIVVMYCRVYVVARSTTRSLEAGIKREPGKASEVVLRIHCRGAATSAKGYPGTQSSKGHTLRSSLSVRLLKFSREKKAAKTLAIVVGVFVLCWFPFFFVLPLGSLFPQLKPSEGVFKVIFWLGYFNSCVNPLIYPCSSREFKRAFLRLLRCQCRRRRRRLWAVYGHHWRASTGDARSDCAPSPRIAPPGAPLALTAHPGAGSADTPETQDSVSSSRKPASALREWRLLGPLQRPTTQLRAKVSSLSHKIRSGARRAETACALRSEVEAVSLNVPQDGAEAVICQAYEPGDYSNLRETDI
Briefly: In vitro [3H]-prazosin radioligand binding, cloned α-1d adrenoreceptor expressed in LTK cells. To be noted: for Ki: cloned rat α-1d in LTK cells, [3H]prazosin 0.2 nM, read-out: Radioligand Binding (Ki; nM) 1d (Rat). As to the method: Additionally, binding affinity against the pharmacologically defined α-1A adrenoreceptor (rat submaxillary gland) was measured.
The cDNA clones encoding the α-1 adrenoreceptors (α-1a, α-1b, and α-1d) were obtained from TULCO (Triangle Universities Licensing Consortium, Research Triangle Park, N.C.) and inserted into the eukaryotic expression vector SnaB30. In this vector, expression of the adrenoreceptor gene is under the transcriptional control of an SV40 early promoter. Positive drug selection is provided by a neomycin-resistance gene. Mouse fibroblast cells (LTK) were transfected with the α1 expression plasmids and grown in Dulbecco's modified Eagle's medium (DMEM) containing 10% fetal calf serum and […]. Stable G418-resistant parental lines were generated, with successful expression of adrenoreceptor protein monitored using radioligand binding techniques. Stable single cell clones derived from the parental lines were screened in adrenoreceptor binding assays to identify clones having high adrenoreceptor density. Roller bottle cultures of the cloned lines were used to provide cell membranes for subsequent adrenoreceptor binding characterization studies. A cell line containing the SnaB30 vector expressing the human erythropoietin gene served as a negative control.
For adrenoreceptor binding assays, large scale membrane preparations were utilized in which 6 million cells were seeded into small (450 cm^2) Corning tissue culture roller bottles. 200 mL of DMEM containing 10% fetal calf serum and 300 μM G418 were added to each roller bottle. A 95% air/5% CO2 gas mixture (sterile) was injected into each roller bottle prior to sealing. The bottles were then incubated at 37° C. on a roller rack for 5 days. Cells were re-fed with fresh medium after 3 days in culture.
On the fifth day of culture, growth medium was removed from cells grown in roller bottles, and the cells were washed twice with PBS (Sigma, 120 mM NaCl, 2.7 mM KCl, 10 mM Na2 HPO4 --NaH2 PO4, pH=7.4). Cells were detached from the roller bottles by incubating for 15 minutes at 37° C. in a Tris-EDTA solution (10 mM Tris, 100 mM NaCl, 1 mM EDTA, pH=7.4). The cell suspension from each roller bottle was decanted into tared centrifuge tubes and kept on ice. An aliquot of each cell suspension was generally taken for cell counting. Cells were centrifuged at 3000×G for 5 min at 2°-4° C., washed with PBS and recentrifuged. The supernatant was decanted and the pellet weighed to determine the wet weight of cells. Cells were washed a final time in 40 vol 5 mM Tris-HCl, 5 mM EDTA, pH=7.7, and centrifuged at 40,000×G for 10 minutes. Cells were homogenized in 10 mL of 50 mM Tris-HCl, 5 mM EDTA (pH=7.4) and diluted to 40 mL/tube. Homogenates were centrifuged at 40,000×G for 10 minutes. The supernatant was decanted and the pellets rehomogenized in 50 mM Tris-HCl (pH=7.4) and centrifuged as before. The supernatant was decanted and the homogenate resuspended in 6.25 volumes (per gram wet weight) of 50 mM Tris-HCl and aliquots of the pooled homogenates frozen in liquid N2 and stored at -70° C. until the time of assay. Rat submaxillary glands were used for α-1A adrenoreceptors and were prepared essentially as described (Michel, A. D., Loury, D. N. and Whiting, R. L., Brit. J. Pharmacol. 98: 83-889 (1989)).
Receptor binding assays for α-1 adrenoreceptors were performed essentially as described by Greengrass and Bremner (Eur. J. Pharmacol. 55: 323-326 (1979)). […] Radioactivity was determined by standard liquid scintillation techniques. Data were analyzed as previously described (Hancock, A. A., Kyncl, J. J., Martin, Y. C. and DeBernardis, J. F., J Receptor Res. 8: 23-46 (1988)).

Usually Kb stands for the affinity of an antagonist, worked out from how it opposes an agonist. Read a high Kb as a less potent antagonist. In general, pKi refers to the Ki on a negative log10 scale, so that one unit is a factor of ten. Lower therefore signals a high Ki. In experiment [1], `COc1cccc2c1[C@@H]1CCN(CCCCn3c(=O)[nH]c4c(sc5cccnc54)c3=O)C[C@H]1CO2` (relative stereo) [Example 88, 3-[4-((±)-trans-10-Methoxy-1,3,4,4a,5,10b-hexahydro-2H-[1]-benzopyrano[3,4-c]pyrido-3-yl)butyl]-pyrido[2',3':4,5]thieno[3,2-d]pyrimidine-2,4(1H,3H)-dione hydrochloride] gave a Kb of 72.4 nM. The negative logarithm of the Ki (pKi) in experiment [2] was 9.59. In the same order, the values of `COc1cccc2c1[C@@H]1CCN(CCCCn3c(=O)[nH]c4c(sc5ccccc54)c3=O)C[C@H]1CO2` (relative stereo) [Example 87, 3-[4-((±)-trans-10-Methoxy-1,3,4,4a,5,10b-hexahydro-2H-[1]-benzopyrano[3,4-c]pyrido-3-yl)butyl]-[1]-benzthieno[3,2-d]pyrimidine-2,4(1H,3H)-dione hydrochloride] are 72.4 nM and 9.15.

For orientation: Ki means the dissociation constant of the complex between target and ligand, obtained from inhibition or displacement. For `COc1cc2[nH]c(=O)n(CCN3CC[C@H]4c5c(OC)cccc5OC[C@@H]4C3)c(=O)c2cc1OC` (relative stereo) [Example 91, 3-[2-((±)-trans-10-Methoxy-1,3,4,4a,5,10b-hexahydro-2H-[1]-benzopyrano[3,4-c]pyrido-3-yl)ethyl]-6,7-dimethoxy-quinazoline-2,4(1H,3H)-dione hydrochloride], the Ki in experiment [2] was 0.495 nM. In the case of `COc1ccc2c(n1)sc1c(=O)n(CCCCN3C[C@@H]4COc5cccc(OC)c5[C@@H]4C3)c(=O)[nH]c12` [Example 33, hydrochloride], the “In Vitro Characterization (pA2) Rat Spleen” value in experiment [1] (rat spleen, phenylephrine-induced contraction, Schild plot) was 7.83. Further, the Ki in experiment [2] turned out to be 0.701 nM.
